Laboratory results taken from ChEMBL document CHEMBL3414567, “Novel hybrid DHPM-fatty acids: synthesis and activity against glioma cell growth in vitro” (Eur J Med Chem, 2015).
Active and inactive are the calls of the source. The rule behind the calls is not given here.

What was measured:
U138-MG = assay: Cytotoxicity against human U138MG cells assessed as reduction of cell viability after 24 hrs by MTT assay; assay type: functional, cell-based
[1] = Cytotoxicity against Wistar rat organotypic hippocampal slice cultures assessed as neural cell death at 200 uM after 24 hrs by propidium iodide staining-based fluorescence image analysis; design: species or system Hippocampus
C6 [2] = assay: Cytotoxicity against rat C6 cells assessed as reduction of cell viability after 24 hrs by MTT assay; assay type: functional, cell-based
C6 [3] = assay: Cytotoxicity against rat C6 cells assessed as reduction of cell viability at 50 uM after 24 hrs by MTT assay; assay type: functional, cell-based
[4] = Cytotoxicity against human U138MG cells assessed as reduction of cell viability at 50 uM after 24 hrs by MTT assay relative to control; assay type: functional, U138-MG
C6 [5] = assay: Cytotoxicity against rat C6 cells assessed as reduction of cell viability at 25 uM after 24 hrs by MTT assay; assay type: functional, cell-based
[6] = Cytotoxicity against human U138MG cells assessed as reduction of cell viability at 10 uM after 24 hrs by MTT assay relative to control; assay type: functional, U138-MG
[7] = Cytotoxicity against human U138MG cells assessed as growth inhibition at 150 uM relative to control; assay type: functional; conditions: U138-MG, read-out: GI
C6 [8] = assay: Cytotoxicity against rat C6 cells assessed as growth inhibition at 150 uM relative to control; assay type: functional; conditions: read-out: GI

| SMILES | Activity [1] | Activity (C6 [3]) | Activity [4] [%] | further results |
| --- | --- | --- | --- | --- |
| CCCCCCCC/C=C\CCCCCCCCOC(=O)C1=C(C)NC(=O)NC1c1ccccc1 (stereo unspecified) | Non-toxic |  |  | Activity (U138-MG): Dose-dependent effect; Activity (C6 [2]): Dose-dependent effect |
| CCCCCCCCCCCCCCCCOC(=O)C1=C(C)NC(=S)NC1c1cccc(O)c1 (stereo unspecified) | Non-toxic | Active | 70 | Activity (C6 [5]): Active |
| CCCCCCCCCCCCCCCCOC(=O)C1=C(C)NC(=O)NC1c1cccc(O)c1 (stereo unspecified) | Non-toxic | Active | 70 | Activity [6]: 50% |
| CCCCCCCC/C=C\CCCCCCCCOC(=O)C1=C(C)NC(=O)NC1c1cccc(O)c1 (stereo unspecified) | Non-toxic | Active | 70 | Activity (C6 [5]): Active |
| CCCCCCCCCCCCCCCCCCOC(=O)C1=C(C)NC(=S)NC1c1cccc(O)c1 (stereo unspecified) |  | inactive |  |  |
| CCCCCCCC/C=C\CCCCCCCCOC(=O)C1=C(C)NC(=S)NC1c1cccc(O)c1 (stereo unspecified) | Non-toxic | Active | 70 |  |
| CCOC(=O)C1=C(C)NC(=S)NC1c1cccc(O)c1 (stereo unspecified) [MONASTROL] |  |  |  | inhibition of growth at 150 µM [7]: 30%; inhibition of growth at 150 µM (C6 [8]): 30% |
